According to publication PMC7182600 (Influenza and Other Respiratory Viruses, 2020):
Several values for one entry are separate records, joined by “and”; a condition that tells them apart may be missing. Identical values can stand only once.

Biological target: NA of B/Tokyo/UT‐AC032/2018 (G407S) (Influenza B virus, UniProt A0A1W5M8K7, G407S)
Assay type: biochemical

Molecule	susceptibility to NA inhibitor (in words)	fold differences in IC50	IC50 (read-out: IC50 values of NA inhibitors) [nM]
[H]/N=C(\N)N[C@H]1C=C(C(=O)O)O[C@@H]([C@H](OC)[C@H](O)CO)[C@@H]1NC(C)=O [Laninamivir]	marked reduction in susceptibility	–	–
CCC(CC)O[C@@H]1C=C(C(=O)O)C[C@H](N)[C@H]1NC(C)=O [Oseltamivir carboxylate]	moderately reduced susceptibility	–	–
CC(=O)N[C@H]1[C@H]([C@H](O)[C@H](O)CO)OC(C(=O)O)=C[C@@H]1N=C(N)N [Zanamivir]	marked reduction in susceptibility	–	–
Peramivir	marked reduction in susceptibility	64 fold and 32.1 ± 12.9 (64.2) fold	32.1
